# In US20210047297A1, “4-(3-AMINO-6-FLUORO-1H-INDAZOL-5-YL)-1,2,6-TRIMETHYL-1,4-DIHYDROPYRIDINE-3,5-DIC ARBONITRILE COMPOUNDS FOR TREATING HYPERPROLIFERATIVE DISORDERS” (Bayer Pharma Aktiengesellschaft, priority 2018, published 2021):
# Target: T1, GST-AMPKα2/ß1/γ1 complex (full-length human AMPKα2) (Homo sapiens, UniProt P54619+P54646+Q9Y478)
# T1 construct: purchased Carna Biosciences 02-114; host or cells: baculovirus expression system
# Assay: AMPK high ATP assay (TR-FRET-based AMPK activity inhibition assay)
# Format: biochemical
# Conditions: ATP concentration of 1 mM; median; read-out: AMPK high ATP assay IC50 [mol/l] (median)
# Protocol: AMPK inhibitory activity of compounds of the present invention at an ATP concentration of 1 mM was quantified employing the TR-FRET-based AMPK activity inhibition assay as described in the following paragraphs.
# Recombinant fusion protein of N-terminal Glutathion-S-Transferase (GST) and full-length human AMPKα2 [1-552(end) amino acids of accession number NP_006243.2] co-expressed with GST-PRKAB1 [1-270(end) amino acids of accession number NP_006244.2] and PRKAG1 [1-331(end) amino acids of accession number NP_002724.1] using a baculovirus expression system, purified as GST-AMPKα2/ß1/γ1 complex by using glutathione sepharose chromatography, activated with His-tagged CaMKK1 and subsequently purified by using glutathione sepharose chromatography, was purchased from Carna Biosciences (product number 02-114) and used as kinase. As substrate for the kinase reaction biotinylated peptide biotin-Ahx-HMRSAMSFAEPG (C-terminus in amide form) was used which can be purchased e.g. form the company Biosyntan (Berlin-Buch, Germany). For the assay 50 nl of a 100 fold concentrated solution of the test compound in DMSO was pipetted into either a black low volume 384 well microtiter plate or a black 1536 well microtiter plate (both Greiner Bio-One, Frickenhausen, Germany), 2 μl of a solution of GST-AMPKα2/ß1/γ1 in aqueous assay buffer [50 mM Hepes pH 7.5, 10 mM MgCl2, 5 mM β-glycerophosphate, 2.5 mM dithiothreitol (DTT), 0.5 mM EGTA, 0.01% (w/v) bovine γ-globulin (Sigma-Aldrich, #G5009), 0.01% (v/v) Triton X-100 (Sigma-Aldrich, #T9284)] were added and the mixture was incubated for 15 min at 22° C. to allow pre-binding of the test compounds to the enzyme before the start of the kinase reaction. Then the kinase reaction was started by the addition of 3 μl of a solution of adenosine-tri-phosphate (ATP, 1.67 mM=>final conc. in the 5 μl assay volume is 1 mM), adenosine-mono-phosphate (AMP, 3.33 μM=>final conc. in the 5 μl assay volume is 2 μM), and substrate (0.83 μM=>final conc. in the 5 μl assay volume is 0.5 μM) in assay buffer and the resulting mixture was incubated for a reaction time of 30 min at 22° C. The concentration of GST-AMPK α2/ß1/γ1 was adjusted depending of the activity of the enzyme lot and was chosen appropriate to have the assay in the linear range, a typical concentration was 0.08 nM. The reaction was stopped by the addition of 3 μl of a solution of TR-FRET detection reagents (0.2 μM streptavidine-XL665 [Cisbio Bioassays, Codolet, France] and 3.33 nM anti-phosho-Serine antibody [Merck Millipore, “STK antibody”, cat. #35-002] and 3.33 nM anti mouse IgG-Tb cryptate, a Terbium-cryptate labelled anti-mouse IgG antibody [Cisbio Bioassays, Codolet, France] in an aqueous EDTA-solution (166.7 mM EDTA, 0.06 (w/v) bovine serum albumin in 50 mM HEPES pH 7.5).
# The resulting mixture was incubated 1 h at 22° C. to allow the formation of complex between the phosphorylated biotinylated peptide and the detection reagents. Subsequently the amount of phosphorylated substrate was evaluated by measurement of the resonance energy transfer from the Tb-cryptate to the streptavidine-XL665. Therefore, the fluorescence emissions at 620 nm and 665 nm after excitation at 350 nm was measured in a TR-FRET reader, e.g. a Pherastar FS (BMG Labtechnologies, Offenburg, Germany) or a Viewlux (Perkin-Elmer). The ratio of the emissions at 665 nm and at […] was taken as the measure for the amount of phosphorylated substrate. The data were normalised (enzyme reaction without inhibitor=0 inhibition, all other assay components but no enzyme=100% inhibition).
# T1 sequence (P54646 whole entry): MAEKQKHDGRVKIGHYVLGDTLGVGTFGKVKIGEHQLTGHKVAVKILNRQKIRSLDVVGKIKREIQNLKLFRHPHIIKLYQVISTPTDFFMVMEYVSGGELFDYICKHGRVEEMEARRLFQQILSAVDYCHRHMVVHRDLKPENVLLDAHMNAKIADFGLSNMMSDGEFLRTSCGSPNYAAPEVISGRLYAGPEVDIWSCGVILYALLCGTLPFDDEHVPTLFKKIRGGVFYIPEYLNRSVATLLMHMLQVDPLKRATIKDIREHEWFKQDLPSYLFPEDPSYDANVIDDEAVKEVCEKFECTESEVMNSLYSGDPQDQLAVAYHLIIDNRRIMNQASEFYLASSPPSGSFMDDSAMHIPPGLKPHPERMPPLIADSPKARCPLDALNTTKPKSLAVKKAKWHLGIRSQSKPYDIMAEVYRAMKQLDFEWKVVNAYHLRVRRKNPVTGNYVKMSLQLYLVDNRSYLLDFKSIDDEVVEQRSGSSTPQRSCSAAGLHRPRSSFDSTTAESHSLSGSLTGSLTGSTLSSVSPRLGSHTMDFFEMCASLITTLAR
# T1 sequence (Q9Y478 whole entry partner): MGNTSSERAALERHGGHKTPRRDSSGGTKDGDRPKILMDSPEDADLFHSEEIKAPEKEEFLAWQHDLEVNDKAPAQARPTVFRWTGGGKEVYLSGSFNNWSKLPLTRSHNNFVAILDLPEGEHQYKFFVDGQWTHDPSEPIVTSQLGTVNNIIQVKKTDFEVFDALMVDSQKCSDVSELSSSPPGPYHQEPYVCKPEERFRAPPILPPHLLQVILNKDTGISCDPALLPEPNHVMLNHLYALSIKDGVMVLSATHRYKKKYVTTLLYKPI
# T1 sequence (P54619 whole entry partner): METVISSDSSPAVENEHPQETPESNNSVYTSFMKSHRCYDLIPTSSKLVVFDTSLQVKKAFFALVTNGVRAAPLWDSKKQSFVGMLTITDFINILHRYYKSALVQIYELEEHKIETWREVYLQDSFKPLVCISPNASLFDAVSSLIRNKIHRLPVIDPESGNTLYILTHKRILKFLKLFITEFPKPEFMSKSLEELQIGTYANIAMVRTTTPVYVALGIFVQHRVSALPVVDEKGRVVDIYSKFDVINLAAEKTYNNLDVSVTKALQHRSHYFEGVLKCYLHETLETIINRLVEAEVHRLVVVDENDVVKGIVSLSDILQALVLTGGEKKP
row,Structure (SMILES),IC50 [µM]
1,"CC1=C(C#N)C(c2cc3c(NC(=O)c4c(F)cccc4Cl)n[nH]c3c(C)c2F)C(C#N)=C(C)N1C [Example 11, 2-chloro-N-[5-(3,5-dicyano-1,2,6-trimethyl-1,4-dihydropyridin-4-yl)-6-fluoro-7-methyl-1H-indazol-3-yl]-6-fluorobenzamide]",0.0089
2,"CC1=C(C#N)C(c2cc3c(NC(=O)C45C6C7C4C4C5C6C74C(=O)N4CCN(C)CC4)n[nH]c3c(C)c2F)C(C#N)=C(C)N1C (stereo not drawn) [Example 24, N-[5-(3,5-dicyano-1,2,6-trimethyl-1,4-dihydropyridin-4-yl)-6-fluoro-7-methyl-1H-indazol-3-yl]-4-(4-methylpiperazine-1-carbonyl)cubane-1-carboxamide]",0.0597
3,"CC1=C(C#N)C(c2cc3c(NC(=O)c4cn(C)nc4C(F)(F)F)n[nH]c3c(I)c2F)C(C#N)=C(C)N1C [Example 3, N-[5-(3,5-dicyano-1,2,6-trimethyl-1,4-dihydropyridin-4-yl)-6-fluoro-7-iodo-1H-indazol-3-yl]-1-methyl-3-(trifluoromethyl)-1H-pyrazole-4-carboxamide]",0.0543
4,"CC1=C(C#N)C(c2cc3c(NC(=O)c4cn(CCN5CCCC5)nc4C(F)(F)F)n[nH]c3c(C)c2F)C(C#N)=C(C)N1C [Example 16, N-[5-(3,5-dicyano-1,2,6-trimethyl-1,4-dihydropyridin-4-yl)-6-fluoro-7-methyl-1H-indazol-3-yl]-1-[2-(pyrrolidin-1-yl)ethyl]-3-(trifluoromethyl)-1H-pyrazole-4-carboxamide]",0.00571
5,"CC1=C(C#N)C(c2cc3c(NC(=O)c4ccc(OCCN5CCCC5)cc4Cl)n[nH]c3c(I)c2F)C(C#N)=C(C)N1C [Example 4, 2-chloro-N-[5-(3,5-dicyano-1,2,6-trimethyl-1,4-dihydropyridin-4-yl)-6-fluoro-7-iodo-1H-indazol-3-yl]-4-[2-(pyrrolidin-1-yl)ethoxy]benzamide]",0.0027
6,"CCc1c(F)c(C2C(C#N)=C(C)N(C)C(C)=C2C#N)cc2c(NC(=O)c3c(Cl)cnn3C)n[nH]c12 [Example 29, 4-chloro-N-[5-(3,5-dicyano-1,2,6-trimethyl-1,4-dihydropyridin-4-yl)-7-ethyl-6-fluoro-1H-indazol-3-yl]-1-methyl-1H-pyrazole-5-carboxamide]",0.122
7,"CCn1nc(C)cc1C(=O)Nc1n[nH]c2c(C(F)(F)F)c(F)c(C3C(C#N)=C(C)N(C)C(C)=C3C#N)cc12 [Example 33, N-[5-(3,5-dicyano-1,2,6-trimethyl-1,4-dihydropyridin-4-yl)-6-fluoro-7-(trifluoromethyl)-1H-indazol-3-yl]-1-ethyl-3-methyl-1H-pyrazole-5-carboxamide]",0.025
8,"CCn1cc(C(=O)Nc2n[nH]c3c(C)c(F)c(C4C(C#N)=C(C)N(C)C(C)=C4C#N)cc23)c(C)n1 [Example 12, N-[5-(3,5-dicyano-1,2,6-trimethyl-1,4-dihydropyridin-4-yl)-6-fluoro-7-methyl-1H-indazol-3-yl]-1-ethyl-3-methyl-1H-pyrazole-4-carboxamide]",0.0157
9,"CC1=C(C#N)C(c2ccc3[nH]nc(NC(=O)c4ccccc4)c3c2)C(C#N)=C(C)N1 [Reference Example 1, N-[5-(3,5-dicyano-2,6-dimethyl-1,4-dihydropyridin-4-yl)-1H-indazol-3-yl]benzamide, reference compound]",0.279
10,"COCCn1cc(C(=O)Nc2n[nH]c3c(C)c(F)c(C4C(C#N)=C(C)N(C)C(C)=C4C#N)cc23)c(C(F)(F)F)n1 [Example 15, N-[5-(3,5-dicyano-1,2,6-trimethyl-1,4-dihydropyridin-4-yl)-6-fluoro-7-methyl-1H-indazol-3-yl]-1-(2-methoxyethyl)-3-(trifluoromethyl)-1H-pyrazole-4-carboxamide]",0.00776
11,"CCc1c(F)c(C2C(C#N)=C(C)N(C)C(C)=C2C#N)cc2c(NC(=O)c3c(F)cccc3F)n[nH]c12 [Example 26, N-[5-(3,5-dicyano-1,2,6-trimethyl-1,4-dihydropyridin-4-yl)-7-ethyl-6-fluoro-1H-indazol-3-yl]-2,6-difluorobenzamide]",0.0381
12,"CC1=C(C#N)C(c2cc3c(NC(=O)C(C)c4cccnc4)n[nH]c3c(C)c2F)C(C#N)=C(C)N1C (racemic) [Example 21, (rac)-N-[5-(3,5-dicyano-1,2,6-trimethyl-1,4-dihydropyridin-4-yl)-6-fluoro-7-methyl-1H-indazol-3-yl]-2-(pyridin-3-yl)propanamide]",0.084
13,"C=Cc1c(F)c(C2C(C#N)=C(C)N(C)C(C)=C2C#N)cc2c(NC(=O)c3cc(C)nn3CC)n[nH]c12 [Example 25, N-[5-(3,5-dicyano-1,2,6-trimethyl-1,4-dihydropyridin-4-yl)-7-ethenyl-6-fluoro-1H-indazol-3-yl]-1-ethyl-3-methyl-1H-pyrazole-5-carboxamide]",0.152
14,"CC1=C(C#N)C(c2cc3c(NC(=O)c4ccccc4Cl)n[nH]c3c(I)c2F)C(C#N)=C(C)N1C [Example 2, 2-chloro-N-[5-(3,5-dicyano-1,2,6-trimethyl-1,4-dihydropyridin-4-yl)-6-fluoro-7-iodo-1H-indazol-3-yl]benzamide]",0.013
15,"CCc1ccccc1C(=O)Nc1n[nH]c2c(CC)c(F)c(C3C(C#N)=C(C)N(C)C(C)=C3C#N)cc12 [Example 27, N-[5-(3,5-dicyano-1,2,6-trimethyl-1,4-dihydropyridin-4-yl)-7-ethyl-6-fluoro-1H-indazol-3-yl]-2-ethylbenzamide]",0.0595
16,"CCn1nc(C)cc1C(=O)Nc1n[nH]c2c(C)c(F)c(C3C(C#N)=C(C)N(C)C(C)=C3C#N)cc12 [Example 5, N-[5-(3,5-dicyano-1,2,6-trimethyl-1,4-dihydropyridin-4-yl)-6-fluoro-7-methyl-1H-indazol-3-yl]-1-ethyl-3-methyl-1H-pyrazole-5-carboxamide]",0.00374
17,"COC(=O)C12C3C4C1C1C2C3C41C(=O)Nc1n[nH]c2c(C)c(F)c(C3C(C#N)=C(C)N(C)C(C)=C3C#N)cc12 (stereo not drawn) [Example 22, methyl 4-{[5-(3,5-dicyano-1,2,6-trimethyl-1,4-dihydropyridin-4-yl)-6-fluoro-7-methyl-1H-indazol-3-yl]carbamoyl}cubane-1-carboxylate]",0.0656
18,"CC1=C(C#N)C(c2cc3c(NC(=O)c4c(F)cccc4F)n[nH]c3c(C)c2F)C(C#N)=C(C)N1C [Example 7, N-[5-(3,5-dicyano-1,2,6-trimethyl-1,4-dihydropyridin-4-yl)-6-fluoro-7-methyl-1H-indazol-3-yl]-2,6-difluorobenzamide]",0.0196
19,"CCc1c(F)c(C2C(C#N)=C(C)N(C)C(C)=C2C#N)cc2c(NC(=O)c3ccccc3Cl)n[nH]c12 [Example 31, 2-chloro-N-[5-(3,5-dicyano-1,2,6-trimethyl-1,4-dihydropyridin-4-yl)-7-ethyl-6-fluoro-1H-indazol-3-yl]benzamide]",0.0715
20,"CC1=C(C#N)C(c2cc3c(NC(=O)c4cc(F)ccc4C(F)(F)F)n[nH]c3c(C)c2F)C(C#N)=C(C)N1C [Example 10, N-[5-(3,5-dicyano-1,2,6-trimethyl-1,4-dihydropyridin-4-yl)-6-fluoro-7-methyl-1H-indazol-3-yl]-5-fluoro-2-(trifluoromethyl)benzamide]",0.0262
21,"CC1=C(C#N)C(c2cc3c(NC(=O)c4ccc(OCCN5CCCC5)cc4)n[nH]c3c(C)c2F)C(C#N)=C(C)N1C [Example 13, N-[5-(3,5-dicyano-1,2,6-trimethyl-1,4-dihydropyridin-4-yl)-6-fluoro-7-methyl-1H-indazol-3-yl]-4-[2-(pyrrolidin-1-yl)ethoxy]benzamide]",0.0134
